Measured values published in patent publication US12240862B2, “Inhibitors of peptidylarginine deiminases” (Gilead Sciences, Inc., priority 2020, dated 2025).

biological target: T1, human PAD4 (Homo sapiens, UniProt Q9UM07); assay: In vitro PAD4 BAEE biochemical assay; settings: human PAD4, BAEE substrate; 5 nM PAD4, 2 mM calcium chloride, 3 mM BAEE; geometric mean of multiple experiments
T1 construct: human PAD4 (NM_012387), A2P663, was PCR amplified; His-SUMO (N, cleaved yes); made in house; host or cells: E. coli BL21(DE3)
T1 sequence (Q9UM07 2-663): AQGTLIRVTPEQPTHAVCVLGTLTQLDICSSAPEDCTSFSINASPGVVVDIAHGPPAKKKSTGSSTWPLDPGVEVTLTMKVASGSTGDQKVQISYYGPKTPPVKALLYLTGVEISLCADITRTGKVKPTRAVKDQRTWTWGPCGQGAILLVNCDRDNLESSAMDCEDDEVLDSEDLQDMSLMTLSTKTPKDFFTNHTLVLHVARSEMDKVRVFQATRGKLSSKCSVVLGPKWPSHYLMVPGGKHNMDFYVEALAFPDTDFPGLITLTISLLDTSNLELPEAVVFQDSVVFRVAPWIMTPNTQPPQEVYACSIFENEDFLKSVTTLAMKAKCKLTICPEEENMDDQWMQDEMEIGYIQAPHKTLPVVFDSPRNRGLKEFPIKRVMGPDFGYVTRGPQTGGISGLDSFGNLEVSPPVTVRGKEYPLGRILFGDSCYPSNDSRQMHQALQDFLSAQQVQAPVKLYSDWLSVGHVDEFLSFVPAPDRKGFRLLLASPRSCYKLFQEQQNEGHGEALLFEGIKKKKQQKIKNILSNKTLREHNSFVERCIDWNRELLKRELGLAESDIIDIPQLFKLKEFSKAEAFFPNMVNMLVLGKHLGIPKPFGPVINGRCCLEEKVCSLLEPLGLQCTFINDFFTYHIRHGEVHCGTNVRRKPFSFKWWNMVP
Outline: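 Tag-free recombinant hPAD4 (5 nM), 2 mM CaCl2, 3 mM BAEE, 50 mM MOPS pH 7.6, 2 mM DTT; 30 min compound preincubation, 2 h reaction, all 25 °C. EDTA quench; ammonia read via o-phthalaldehyde amine coupling, 1 h.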

| Compound | IC50 [nM] |
| --- | --- |
| CS(=O)(=O)N(c1ccc2cc(-c3nc4cc(C(=O)N5CCC[C@@H](N)C5)ccn4c3CC3CC3)n(CC3CC3)c2n1)C(F)F [Example 438, ~{N}-[2-[7-[(3~{R})-3-aminopiperidine-1-carbonyl]-3-(cyclopropylmethyl)imidazo [1,2-a]pyridin-2-yl]-1-(cyclopropylmethyl)pyrrolo [2,3-b]pyridin-6-yl]-~{N}-(difluoromethyl) methanesulfonamide] | 194 |
| COc1cc(C(=O)N2[C@H]3CC[C@@H]2[C@H](N)C3)cc2nc(-c3cc4ccc([C@@H](C)NC(=O)C5(OC)CC5)nc4n3CC3CC3)c(C)n12 [Example 42, ~{N}-[(1~{R})-1-[2-[7-[(1~{R},2~{R},4~{S})-2-amino-7-azabicyclo [2.2.1]heptane-7-carbonyl]-5-methoxy-3-methylimidazo [1,2-a]pyridin-2-yl]-1-(cyclopropylmethyl)pyrrolo[2,3-b]pyridin-6-yl]ethyl]-1-methoxycyclopropane-1-carboxamide] | 23.3 |
| COc1cc(C(=O)N2[C@H]3CC[C@@H]2[C@H](N)C3)cc2nc(-c3cc4ccc([C@@H](C)NC(=O)C(C)(C)O)nc4n3CC3CC3)c(C)n12 [Example 126, ~{N}-[(1~{R})-1-[2-[7-[(1~{R},2~{R},4~{S})-2-amino-7-azabicyclo[2.2.1]heptane-7-carbonyl]-5-methoxy-3-methylimidazo [1,2-a]pyridin-2-yl]-1-(cyclopropylmethyl)pyrrolo [2,3-b]pyridin-6-yl]ethyl]-2-hydroxy-2-methylpropanamide] | 45.9 |
| COc1cc(C(=O)N2CCC[C@@H](N)C2)cc2nc(-c3cc4ccc(CCC(=O)N(C)C)nc4n3CC3CC3)c(C)n12 [Example 532, 3-[2-[7-[(3~{R})-3-aminopiperidine-1-carbonyl]-5-methoxy-3-methylimidazo[1,2-a]pyridin-2-yl]-1-(cyclopropylmethyl)pyrrolo[2,3-b]pyridin-6-yl]-~{N},~{N}-dimethylpropanamide] | 1480 |
| COc1cc(C(=O)N2[C@H]3CC[C@@H]2[C@H](N)C3)cc2nc(-c3cc4ccc([C@@H](C)NC(=O)N5CCC5)nc4n3CC34CC(C3)C4)c(C)n12 [Example 488] | 86.8 |
| COc1cc(C(=O)N2CCC[C@@H](N)[C@H]2C)cc2nc(-c3cc4ccc(N(C)S(C)(=O)=O)nc4n3CC3CC3)c(C)n12 [Example 480, ~{N}-[2-[7-[(2~{R}, 3~{R})-3-amino-2-methylpiperidine-1-carbonyl]-5-methoxy-3-methylimidazo[1,2-a]pyridin-2-yl]-1-(cyclopropylmethyl)pyrrolo [2,3-b]pyridin-6-yl]-~{N}-methylmethanesulfonamide] | 166 |
| 3-[(1~{R})-1-[2-[7- [(1~{R},2~{R},4~{S})-2- amino-7- azabicyclo[2.2.1]heptane-7- carbonyl]-3-cyclopropyl-5- methoxyimidazo [1,2-a]pyridin-2-yl]-1- (cyclopropylmethyl)pyrrolo [2,3-b]pyridin-6-yl]ethyl]-1- [(6-methoxypyridin-2- yl)methyl]-1-methylurea [Example 219] | 124 |
| COc1cc(C(=O)N2CCC[C@@H](N)C2)cc2nc(-c3cc4ccc(O[C@@H](C)C(=O)NC56CC(F)(C5)C6)nc4n3CC3CC3)c(C)n12 [Example 631, (2~{S})-2-[2-[7-[(3~{R})-3-aminopiperidine-1-carbonyl]-5-methoxy-3-methylimidazo[1,2-a]pyridin-2-yl]-1-(cyclopropylmethyl)pyrrolo[2,3-b]pyridin-6-yl]oxy-~{N}-(3-fluoro-1-bicyclo[1.1.1]pentanyl)propanamide] | 10000 |
| COc1cc(C(=O)N2[C@@H]3CC[C@@H](N)[C@H]2CC3)cc2nc(-c3cc4ccc(N(C(F)F)S(C)(=O)=O)nc4n3CC3CC3)c(C)n12 [Example 407, ~{N}-[2-[7-[(1~{R},2~{R}, 5~{R})-2-amino-8-azabicyclo[3.2.1]octane-8-carbonyl]-5-methoxy-3-methylimidazo[1,2-a]pyridin-2-yl]-1-(cyclopropylmethyl)pyrrolo [2,3-b]pyridin-6-yl]-~{N}-(difluoromethyl) methanesulfonamide] | 129 |
| CCc1c(-c2cc3ccc(N(C(F)F)S(C)(=O)=O)nc3n2CC2CC2)nc2cc(C(=O)N3CC[C@H](O)[C@H](N)C3)cc(OC)n12 [Example 404, ~{N}-[2-[7-[(3~{R},4~{S})-3-amino-4-hydroxypiperidine-1-carbonyl]-3-ethyl-5-methoxyimidazo[1,2-a]pyridin-2-yl]-1-(cyclopropylmethyl)pyrrolo [2,3-b]pyridin-6-yl]-~{N}-(difluoromethyl) methanesulfonamide] | 10600 |
| COc1cc(C(=O)N2[C@H]3CC[C@@H]2[C@H](N)C3)cc2nc(-c3cc4ccc([C@@H](C)NC(=O)c5ccon5)nc4n3CC3CC3)c(C)n12 [Example 104, ~{N}-[(1~{R})-1-[2-[7-[(1~{R},2~{R},4~{S})-2-amino-7-azabicyclo[2.2.1]heptane-7-carbonyl]-5-methoxy-3-methylimidazo [1,2-a]pyridin-2-yl]-1-(cyclopropylmethyl)pyrrolo [2,3-b]pyridin-6-yl]ethyl]-1,2-oxazole-3-carboxamide] | 88.3 |
| CS(=O)(=O)N(c1ccc2cc(-c3nc4cc(C(=O)N5[C@@H]6CC[C@@H](N)[C@H]5CC6)ccn4c3C3CC3)n(CC3CC3)c2n1)C(F)F [Example 397] | 74.8 |
| COc1cc(C(=O)N2C[C@H]3C[C@H](OC)[C@@H]2[C@@H]3N)cc2nc(-c3cc4ccc(N(C(F)F)S(C)(=O)=O)nc4n3CC3CC3)c(C)n12 [Example 372, N-[2-[7-[(1S,4R,6S,7R)-7-amino-6-methoxy-2-azabicyclo[2.2.1]heptane-2-carbonyl]-5-methoxy-3-methyl-imidazo [1,2-a]pyridin-2-yl]-1-(cyclopropylmethyl)pyrrolo [2,3-b]pyridin-6-yl]-N-(difluoromethyl) methanesulfonamide] | 2000 |
| COc1cc(C(=O)NC[C@H]2CCCN2)cc2nc(-c3cc4ccc(N(C(F)F)S(C)(=O)=O)nc4n3CC3CC3)c(C)n12 [Example 304, 2-[1-(cyclopropylmethyl)-6-[difluoromethyl (methylsulfonyl)amino]pyrrolo[2,3-b]pyridin-2-yl]-5-methoxy-3-methyl-~{N}-[[(2~{R})-pyrrolidin-2-yl]methyl] imidazo[1,2-a]pyridine-7-carboxamide] | 19200 |
| COc1cc(C(=O)N2[C@H]3CC[C@@H]2[C@H](N)C3)cc2nc(-c3cc4ccc([C@@H](C)NC(=O)C56CC(F)(C5)C6)nc4n3CC3CC3)c(C3CC3)n12 [Example 144, ~{N}-[(1~{R})-1-[2-[7-[(1~{R},2~{R},4~{S})-2-amino-7-azabicyclo[2.2.1]heptane-7-carbonyl]-3-cyclopropyl-5-methoxyimidazo[1,2-a]pyridin-2-yl]-1-(cyclopropylmethyl)pyrrolo [2,3-b]pyridin-6-yl]ethyl]-3-fluorobicyclo[1.1.1]pentane-1-carboxamide] | 130 |
| COc1cc(C(=O)N2CCC[C@@H](N)C2)cc2nc(-c3cc4ccc([C@@H](C)NC(=O)N5CC(O)C5)nc4n3CC3CC3)c(C3CC3)n12 [Example 146, ~{N}-[(1~{R})-1-[2-[7-[(3~{R})-3-aminopiperidine-1-carbonyl]-3-cyclopropyl-5-methoxyimidazo [1,2-a]pyridin-2-yl]-1-(cyclopropylmethyl)pyrrolo [2,3-b]pyridin-6-yl]ethyl]-3-hydroxyazetidine-1-carboxamide] | 160 |
| COc1cc(C(=O)N2[C@H]3CC[C@@H]2[C@H](N)C3)cc2nc(-c3cc4ccc(N5C(C)CCCCS5(=O)=O)nc4n3CC3CC3)c(C)n12 (stereo partly drawn) [Example 445, [(1~{R},2~{R},4~{S})-2-amino-7-azabicyclo[2.2.1]heptan-7-yl]-[2-[1-(cyclopropylmethyl)-6-(3-methyl-1,1-dioxothiazepan-2-yl)pyrrolo [2,3-b]pyridin-2-yl]-5-methoxy-3-methylimidazo[1,2-a]pyridin-7-yl]methanone] | 80.6 |
| COc1cc(C(=O)N2CC[C@@H](OC)[C@@H](N)C2)cc2nc(-c3cc4ccc(N(C(F)F)S(C)(=O)=O)nc4n3CC3CC3)c(C)n12 [Example 335, ~{N}-[2-[7-[(3~{S}, 4~{R})-3-amino-4-methoxypiperidine-1-carbonyl]-5-methoxy-3-methylimidazo [1,2-a]pyridin-2-yl]-1-(cyclopropylmethyl)pyrrolo [2,3-b]pyridin-6-yl]-~{N}-(difluoromethyl) methanesulfonamide] | 178 |
| CCc1ccc2cc(-c3nc4cc(C(=O)N5CC[C@H]6OCCN[C@H]6C5)cc(OC)n4c3C)n(CC3CC3)c2n1 [Example 591, [(4~{a}~{S},8~{a}~{R})-2,3,4,4~{a},5,7,8,8~{a}-octahydropyrido[4,3-b] [1,4]oxazin-6-yl]-[2-[1-(cyclopropylmethyl)-6-ethylpyrrolo[2,3-b]pyridin-2-yl]-5-methoxy-3-methylimidazo[1,2-a]pyridin-7-yl]methanone] | 936 |
| COc1cc(C(=O)N2[C@H]3CC[C@@H]2[C@H](N)C3)cc2nc(-c3cc4ccc([C@@H](C)NC(=O)c5cnn(C6CC6)c5)nc4n3CC3CC3)c(C)n12 [Example 106, ~{N}-[(1~{R})-1-[2-[7-[(1~{R},2~{R},4~{S})-2-amino-7-azabicyclo [2.2.1]heptane-7-carbonyl]-5-methoxy-3-methylimidazo [1,2-a]pyridin-2-yl]-1-(cyclopropylmethyl)pyrrolo [2,3-b]pyridin-6-yl]ethyl]-1-cyclopropylpyrazole-4-carboxamide] | 40.6 |
| CCOC(=O)N(C)c1ccc2cc(-c3nc4cc(C(=O)N5[C@H]6CC[C@@H]5[C@H](N)C6)cc(OC)n4c3C)n(CC3CC3)c2n1 [Example 466, ethyl~{N}-[2-[7-[(1~{R},2~{R},4~{S})-2-amino-7-azabicyclo[2.2.1]heptane-7-carbonyl]-5-methoxy-3-methylimidazo [1,2-a]pyridin-2-yl]-1-(cyclopropylmethyl)pyrrolo [2,3-b]pyridin-6-yl]-~{N}-methylcarbamate] | 143 |
